Assay type in all cases: functional, cell-based
Assay [1] in a line: Cytotoxicity against human RPMI8402 cells by MTT method. The settings on record: RPMI 8402. (Formazan colour is commonly taken as a measure of viable cells.)
Assay [2] can be described thus: Cytotoxicity against camptothecin-resistant human CPT-K5 cells by MTT method.
In assay [3] the test system is P388. Nature of the assay: Cytotoxicity against mouse P388 cells by MTT method.
In assay [4] the test system is P388. Nature of the assay: cells. The settings on record: Mus musculus.
Assay [5] in a line: Cytotoxicity against human KB3-1 cells by MTT method. The note with it: KB 3-1.
Assay [6] can be described thus: Cytotoxicity against human KBV1 cells by MTT method. The note with it: KB-V1.
Assay [7] can be described thus: Cytotoxicity against human KBH5.0 cells by MTT method. The note with it: KBH5.0 cell.

A word on the IC50: it is the concentration needed to halve the response being measured. Low readings indicate greater potency, high ones weaker potency. As for `COc1cc2cc(CCCN(C)C)c3c4cc5c(cc4ncc3c2cc1OC)OCO5`, the IC50 was found to be 60 nM in assay [1]; 290 nM in assay [2]; 40 nM in the assay with P388 [3]; 200 nM in the assay with P388 [4]; 35 nM in assay [5]; 400 nM in assay [6]. The molecule also returned an IC50 in assay [7] of 130 nM.
As to `COc1cc2cc(C(N)=O)c3c4cc5c(cc4ncc3c2cc1OC)OCO5`, the IC50 in assay [1] is 140 nM; in assay [2], more than 10000 nM; with P388 [3] it was 35 nM; in the assay on P388 [4], more than 10000 nM; in assay [5], 55 nM; in assay [6], 400 nM. Also, the IC50 in assay [7] is 2700 nM.
`COc1cc2cc(CN)c3c4cc5c(cc4ncc3c2cc1OC)OCO5`: the IC50 in assay [1] came out at 120 nM; in assay [2], 2100 nM; in the assay with P388 [3], 26 nM; in the assay on P388 [4], 300 nM; in assay [5], 30 nM; in assay [6] it was 160 nM. In assay [7], this molecule gave an IC50 of 210 nM.
For `COc1cc2cc(CN(C)C)c3c4cc5c(cc4ncc3c2cc1OC)OCO5`, the IC50 in assay [1] came to 100 nM; in assay [2], 2700 nM; in the assay on P388 [3], 100 nM; in the assay on P388 [4] it was 2000 nM; in assay [5], 60 nM; in assay [6], 250 nM. The IC50 in assay [7] amounted to 290 nM.
As to `COc1cc2cc(CC[N+](=O)[O-])c3c4cc5c(cc4ncc3c2cc1OC)OCO5`, the IC50 in assay [1] was 60 nM; in assay [2], more than 10000 nM; in the assay on P388 [3], 70 nM; in the assay on P388 [4], more than 10000 nM; in assay [5] it was 150 nM; in assay [6], 360 nM. Further, 320 nM corresponded to half-maximal inhibition in assay [7] (IC50).
Take `COc1cc2cc(CCN)c3c4cc5c(cc4ncc3c2cc1OC)OCO5`: the IC50 in assay [1] turned out to be 32 nM; in assay [2], 200 nM; in the assay with P388 [3], 14 nM; in the assay with P388 [4], 180 nM; in assay [5], 20 nM; in assay [6], 500 nM. This molecule also had an IC50 in assay [7] of 110 nM.
As for `CNC(=O)c1cc2cc(OC)c(OC)cc2c2cnc3cc4c(cc3c12)OCO4`, the IC50 is 280 nM in assay [1]; more than 10000 nM in assay [2]; more than 10000 nM in the assay on P388 [4]; 230 nM in assay [5]; 420 nM in assay [6]; 480 nM in assay [7].
Turning to `COc1cc2cc(C(=O)NCCN(C)C)c3c4cc5c(cc4ncc3c2cc1OC)OCO5`, the IC50 in assay [1] worked out at 35 nM; in assay [2] it was 630 nM; in the assay on P388 [3] it was 15 nM; in the assay with P388 [4], 260 nM; in assay [5] it was 27 nM; in assay [6], 1400 nM. Besides, half-maximal inhibition in assay [7] (IC50) required 200 nM.
Turning to `COc1cc2cc(CO)c3c4cc5c(cc4ncc3c2cc1OC)OCO5`, the IC50 in assay [1] is 120 nM; in assay [2] it was more than 10000 nM; in the assay on P388 [3] it was 60 nM; in the assay on P388 [4], more than 10000 nM; in assay [5] it was 150 nM; in assay [6], 400 nM. For the same molecule, half-maximal inhibition in assay [7] (IC50) required 400 nM.
On to `COc1cc2cc(C=O)c3c4cc5c(cc4ncc3c2cc1OC)OCO5`, for which the IC50 in assay [1] was 100 nM; in assay [2], more than 10000 nM; in the assay with P388 [3], 120 nM; with P388 [4], 10000 nM; in assay [5], 130 nM; in assay [6], 300 nM. This molecule showed an IC50 in assay [7] of 290 nM.
In the case of `COc1cc2cc(/C=C/[N+](=O)[O-])c3c4cc5c(cc4ncc3c2cc1OC)OCO5`, the IC50 is 550 nM in assay [1]; more than 10000 nM in assay [2]; 180 nM in the assay with P388 [3]; 10000 nM in the assay with P388 [4]; 180 nM in assay [5]; 450 nM in assay [6]. The IC50 in assay [7] worked out at 420 nM.
Regarding `COc1cc2cc(CCN(C)C)c3c4cc5c(cc4ncc3c2cc1OC)OCO5`, the IC50 in assay [1] is 20 nM; in assay [2], 330 nM; in the assay on P388 [3], 15 nM; in the assay with P388 [4], 180 nM; in assay [5], 21 nM; in assay [6] it was 60 nM. This molecule also yielded an IC50 in assay [7] of 40 nM.
In the case of `COc1cc2cc(/C=C/CN(C)C)c3c4cc5c(cc4ncc3c2cc1OC)OCO5`, the IC50 in assay [1] is 35 nM; in assay [2], 350 nM; in the assay with P388 [3], 40 nM; in the assay with P388 [4] it was 350 nM; in assay [5], 30 nM; in assay [6], 330 nM. Besides, the IC50 in assay [7] came out at 70 nM.
On to `COc1cc2cc(C(=O)N(C)C)c3c4cc5c(cc4ncc3c2cc1OC)OCO5`, for which the IC50 is 1600 nM in assay [1]; more than 10000 nM in assay [2]; 980 nM in the assay with P388 [3]; more than 10000 nM in the assay on P388 [4]; 1200 nM in assay [5]; 4000 nM in assay [6]. For the same molecule, the IC50 in assay [7] is 3600 nM.
Consider `CCOC(=O)c1cc2cc(OC)c(OC)cc2c2cnc3cc4c(cc3c12)OCO4`, for which the IC50 is 10000 nM in assay [1]; more than 10000 nM in assay [2]; 4000 nM in the assay on P388 [3]; more than 10000 nM in the assay on P388 [4]; more than 10000 nM in assay [5]; more than 10000 nM in assay [6]. Also, in assay [7], the IC50 was more than 10000 nM.
For `COc1cc2c(=O)n(CCN(C)C)c3c4cc5c(cc4ncc3c2cc1OC)OCO5`, the values for the IC50 (in the assay with P388 [4]; in assay [5]; in assay [6]) were 230 nM, 5 nM and 5 nM, respectively.
As to `CC[C@@]1(O)C(=O)OCc2c1cc1n(c2=O)Cc2cc3ccccc3nc2-1` [CAMPTOTHECIN], the IC50 in assay [1] was 4 nM; with P388 [3], 4 nM; in the assay with P388 [4], more than 10000 nM; in assay [5] it was 15 nM.
As to `CCc1c2c(nc3ccc(OC(=O)N4CCC(N5CCCCC5)CC4)cc13)-c1cc3c(c(=O)n1C2)COC(=O)[C@]3(O)CC` [IRINOTECAN], the figures for the IC50 in assay [5], in assay [6] and in assay [7] were 680 nM, 40000 nM and 7400 nM, respectively.
Take `CC[C@@]1(O)C(=O)OCc2c1cc1n(c2=O)Cc2cc3c(CN(C)C)c(O)ccc3nc2-1` [TOPOTECAN]: the IC50 in assay [1] was 210 nM; with P388 [4], more than 10000 nM; in assay [5] it was 40 nM; in assay [6], 440 nM.

Source of the values: ChEMBL document CHEMBL1152123, “11-Substituted 2,3-dimethoxy-8,9-methylenedioxybenzo[i]phenanthridine derivatives as novel topoisomerase I-targeting agents” (Bioorg Med Chem, 2008).
